Data from US20240130675A1, “Methods for Treating Autism Spectrum Disorder” (The General Hospital Corporation, priority 2021, published 2024).

Legend:
youth with ASD = test: 12-week RCT: safety and tolerability (treatment-emergent AEs, vital signs, early terminations, rescue medication); assay type: in vivo, human
Experimental: This study was a 12-week, randomized, double-blind, placebo-controlled, parallel group clinical trial of memantine in youth with ASD. Youth with ASD who met the eligibility criteria were randomized to receive either memantine or placebo during the course of the 12-week trial. Participants underwent multimodal MRI scans prior to and upon completion of the 12-week trial. Participants were assessed weekly during the titration phase (baseline to Week 4) and at midpoint (Week 6), Week 9, and completion (Week 12) during the maintenance phase. At each study visit, safety and efficacy were assessed by administering measures of efficacy (CGI, GAF), tolerability (assessing treatment-emergent AEs), and safety (vital signs, including weight). At baseline, midpoint, and endpoint (completion/early termination) severity of autism was assessed by administering measures of autism severity (SRS-2, ABC-SW, CY-BOCS-PDD) and associated psychopathology (ADHD-RS, CDRS-R, CASI-ANX).
Safety and tolerability of memantine was monitored by administering a complete physical examination, battery of blood tests (complete blood count, electrolytes, liver function test, thyroid function test, and random glucose levels), Urine tests (drug screen and pregnancy screen [women of child-bearing potential only]), and EKG at baseline and endpoint of the trial, and by recording treatment-emergent AEs and obtaining vital signs (pulse, blood pressure, weight) at each study visit.
Safety results were summarized descriptively by treatment group and baseline glutamate activity level (high versus normal) and compared at the end of the study using Fisher's exact or Pearson's chi-square tests. All analyses were performed using Stata (Version 16) (StataCorp, Stata Statistical Software: Release 16. College Station, TX: StataCorp LLC. 2019).

PgACC glutamate activity = PgACC glutamate activity by 2D-JPRESS 1H MRS at 4T, pre- and post-treatment; assay type: in vivo, human
Experimental: Glutamate response to memantine therapy in the PgACC was assessed by acquiring spectroscopic MRI pre- and post-treatment.
Healthy Control Participants were enrolled for spectroscopic neuro-imaging data acquisition to form a control group. Healthy controls (HC) were age, sex, and IQ-matched with enrolled ASD participants. HC participants were with no significant autistic traits, as screened by SRS-2 raw score of<60, and with no major psychopathology, as established by the K-SADS-E and confirmed by clinical diagnostic interview.
Data Acquisition—Proton spectra were acquired at 4T using a two-dimensional J-resolved (2D-JPRESS) ^1HMRS protocol. A 2D-JPRESS sequence was chosen to improve reliability for spectral fitting of the metabolites(Gonenc et al., 2010; Moore et al., 2007), allow analysis of glutamate alone versus ratios or combined measures (e.g., Glx), and confirm that measured metabolic differences truly arise from differences in metabolic levels and not from T2 relaxation time differences. […] Data were collected in 12 TE-stepped spectra with the echo-time ranging from 30 to 250 ms in 20 ms increments, with TR=2s, averages=16, scan duration=7 minutes.
Data Processing: Spectral analysis was conducted in a fully automated fashion using the commercially available LCModel package (version 6.2-1F). After the 2D-JPRESS dataset was resolved into a series of one-dimensional spectra where each spectrum was modeled and fitted with GAMMA simulated96 J-resolved basis sets, glutamate activity levels were derived from the total integral across the J-series. Glutamate transverse relaxation time (T2) was obtained from the raw peak vs. TE decay curve fitted with Levenberg-Marquardt algorithm using an exponential decay function (for glutamate T2) convoluted with a polynomial function (for glutamate J-coupling) which was obtained from the GAMMA simulation run with previously measured spectral parameters (Govindaraju, Young, & Maudsley, 2000). Data quality was assessed by LCModel calculated Full Width Half Maximum (FWHM), Signal to Noise Ratio (SNR) and Cramer-Rao Lower Bounds (CRLB).
The primary outcome was analyzed using Pearson's chi-square test at the a priori defined significance level of 0.05. Secondary measures of efficacy were analyzed using mixed-effects regression models with robust standard errors to account for the repeated measures on each subject. The primary and secondary measures were compared between memantine versus placebo as well as between those with high versus normal baseline glutamate activity levels. Participants were categorized as having high versus normal glutamate activity levels at baseline using z-scores. The population mean and SD for z-score calculations were derived from healthy control glutamate activity levels (baseline and endpoint). Glutamate activity levels with z-scores≥1 were categorized as high glutamate activity levels, those with z-scores<1 and >−1 were categorized as normal glutamate activity levels and those with z-scores≤−1 were categorized as low glutamate activity levels. Changes in PgACC glutamate activity levels within groups were tested using paired t-tests and changes between groups were tested using two-sample t-tests. We also performed ROC curve analyses to determine the predictive utility of baseline PgACC glutamate activity levels in identifying treatment responders within the memantine and placebo groups. All analyses apart from the analysis of the primary outcome were considered exploratory. Analyses were performed using a modified intent-to-treat analysis set which included all randomized patients who were regarded exposed to study medication (completed at least two weeks of treatment) and had at least one follow-up assessment.

adults with HF-ASD = conditions: cited from earlier work

CC12CC3CC(C)(C1)CC(N)(C3)C2 [MEM, memantine]
Mean # of AEs (youth with ASD; Glu Based Sample [MEM] High [N = 10]): 2.4 ± 1.3 | Mean # of AEs (youth with ASD; Glu Based Sample [MEM] Normal [N = 8]): 2.8 ± 1.0 | Early Terminations: Treatment Limiting AEs (youth with ASD; Unselected Sample MEM [N = 21]): Four | Mean # of AEs (youth with ASD; Unselected Sample MEM [N = 21]): 2.2 ± 1.2 | Participants completed trial (12 weeks) (youth with ASD; Unselected Sample MEM [N = 21]): 16 N | Severe AEs (youth with ASD; Unselected Sample MEM [N = 21]): Two | Severe AEs: Headache (youth with ASD; Unselected Sample MEM [N = 21]): 5% | Severe AEs: Irritability + Agitation (Worsening) (youth with ASD; Unselected Sample MEM [N = 21]): 5% | PgACC Glutamate Activity BL (PgACC glutamate activity; High-Glu ASD Sample, MEM Group N = 10, baseline): 109.1 ± 11.9 | PgACC Glutamate Activity EP (PgACC glutamate activity; High-Glu ASD Sample, MEM Group N = 10, endpoint): 78.7 ± 13.6 | PgACC Glutamate Activity MD (PgACC glutamate activity; High-Glu ASD Sample, MEM Group N = 10, mean difference BL to EP): −30.3 ± 23.3 | PgACC Glutamate Activity ASD vs. HC MD @ EP (PgACC glutamate activity; High-Glu ASD Sample, MEM Group N=10 vs HC N = 13): −2.5 ± 34.3 | PgACC Glutamate Activity ASD vs. HC MD @ BL (PgACC glutamate activity; High-Glu ASD Sample, MEM Group N=10 vs HC N = 16): −32.5 ± 32.4 | PgACC Glutamate Activity BL (PgACC glutamate activity; High-Glu ASD Sample, MEM Responders N = 8, baseline): 111.1 ± 12.5 | PgACC Glutamate Activity EP (PgACC glutamate activity; High-Glu ASD Sample, MEM Responders N = 8, endpoint): 75.8 ± 13.6 | PgACC Glutamate Activity MD (PgACC glutamate activity; High-Glu ASD Sample, MEM Responders N = 8, mean difference BL to EP): −35.4 ± 23.5 | PgACC Glutamate Activity ASD vs. HC MD @ EP (PgACC glutamate activity; High-Glu ASD Sample, MEM Responders N=8 vs HC N = 13): 0.5 ± 35.7 | PgACC Glutamate Activity ASD vs. HC MD @ BL (PgACC glutamate activity; High-Glu ASD Sample, MEM Responders N=8 vs HC N = 16): −34.5 ± 34.4 | MD in Glu w/ Tx: MD MEM vs PBO (PgACC glutamate activity; High-Glu ASD, MEM = 10 PBO = 8): −21.5 ± 37.3 | MD in Glu w/ Tx: MD H-Glu vs N-Glu (PgACC glutamate activity; MEM Group, H-Glu N = 10 vs N-Glu N = 5): 32.2 ± 43.1 | PgACC Glutamate Activity BL (PgACC glutamate activity; Normal-Glu ASD Sample, MEM Group/Non-Responders N = 5, baseline): 84.1 ± 8.6 | PgACC Glutamate Activity EP (PgACC glutamate activity; Normal-Glu ASD Sample, MEM Group/Non-Responders N = 5, endpoint): 86.0 ± 2.8 | PgACC Glutamate Activity MD (PgACC glutamate activity; Normal-Glu ASD Sample, MEM Group/Non-Responders N = 5, mean difference BL to EP): 1.9 ± 10.8 | PgACC Glutamate Activity ASD vs. HC MD @ EP (PgACC glutamate activity; Normal-Glu ASD Sample, MEM Group/Non-Responders N=5 vs HC N = 13): −9.7 ± 37.2 | MD in Glu w/ Tx: MD MEM vs PBO (PgACC glutamate activity; Normal-Glu ASD, MEM = 5): −6.3 ± 24.1 | PgACC Glutamate Activity ASD vs. HC MD @ BL (PgACC glutamate activity; Unselected ASD Sample, MEM Group (MEM=19) vs HC N = 16): −19.8 ± 34.5^[MEM=19] | PgACC Glutamate Activity BL (PgACC glutamate activity; Unselected ASD Sample, MEM Group N = 15, baseline, mean ± SD): 100.8 ± 16.1 | PgACC Glutamate Activity EP (PgACC glutamate activity; Unselected ASD Sample, MEM Group N = 15, endpoint, mean ± SD): 81.2 ± 11.6 | PgACC Glutamate Activity MD (PgACC glutamate activity; Unselected ASD Sample, MEM Group N = 15, mean difference BL to EP): −19.6 ± 25.1 | PgACC Glutamate Activity ASD vs. HC MD @ EP (PgACC glutamate activity; Unselected ASD Sample, MEM Group N=15 vs HC N = 13): −4.9 ± 31.2 | PgACC Glutamate Activity BL (PgACC glutamate activity; Unselected ASD Sample, MEM Non-responders N = 7, baseline): 88.9 ± 10.9 | PgACC Glutamate Activity EP (PgACC glutamate activity; Unselected ASD Sample, MEM Non-responders N = 7, endpoint): 87.3 ± 3.9 | PgACC Glutamate Activity MD (PgACC glutamate activity; Unselected ASD Sample, MEM Non-responders N = 7, mean difference BL to EP): −1.6 ± 10.7 | PgACC Glutamate Activity ASD vs. HC MD @ EP (PgACC glutamate activity; Unselected ASD Sample, MEM Non-responders N=7 vs HC N = 13): −11.1 ± 33.1 | PgACC Glutamate Activity ASD vs. HC MD @ BL (PgACC glutamate activity; Unselected ASD Sample, MEM Non-responders N=7 vs HC N = 16): −12.3 ± 34.9 | PgACC Glutamate Activity BL (PgACC glutamate activity; Unselected ASD Sample, MEM Responders N = 8, baseline): 111.1 ± 12.5 | PgACC Glutamate Activity EP (PgACC glutamate activity; Unselected ASD Sample, MEM Responders N = 8, endpoint): 75.8 ± 13.6 | PgACC Glutamate Activity MD (PgACC glutamate activity; Unselected ASD Sample, MEM Responders N = 8, mean difference BL to EP): −35.4 ± 23.5 | PgACC Glutamate Activity ASD vs. HC MD @ EP (PgACC glutamate activity; Unselected ASD Sample, MEM Responders N=8 vs HC N = 13): 0.48 ± 35.7 | PgACC Glutamate Activity ASD vs. HC MD @ BL (PgACC glutamate activity; Unselected ASD Sample, MEM Responders N=8 vs HC N = 16): -34.5 ± 34.4 | MD in Glu w/ Tx: MD MEM vs PBO (PgACC glutamate activity; Unselected ASD, MEM = 15, PBO = 16): −12.2 ± 38.3 | Magnitude of PgACC glutamate reduction, memantine versus placebo (PgACC glutamate activity; high glutamate sample): significantly higher | PgACC glutamate activity with treatment versus HCs (PgACC glutamate activity; high glutamate sample, memantine group): not significantly different from HCs | Change with treatment in PgACC glutamate activity, baseline to endpoint (PgACC glutamate activity; high glutamate sample, memantine treated group): significant reduction | Change with treatment in PgACC glutamate activity, baseline to endpoint (PgACC glutamate activity; normal-glutamate sample): did not change significantly | Change with treatment in PgACC glutamate activity, baseline to endpoint (PgACC glutamate activity; unselected sample of ASD, memantine treated group): significant reduction | Social behaviors (adults with HF-ASD; 12-week treatment, 20 mg/day, adults with HF-ASD): significant improvement in social behaviors | Responders (adults with HF-ASD; pilot study, 15-20 mg daily): four out of seven
